A word on the IC50: it is the concentration at which inhibition is half-maximal. Usually melting point stands for the temperature, or range, at which the solid turns liquid.

For data set [1], the target named is T1, Serotonin reuptake (whole rat brain synaptosomes) (Rattus norvegicus, UniProt P31652).
T1 construct: from tissue; host or cells: whole rat brain synaptosomes
Nature of the data set: Inhibition of 3H-5-HT uptake into rat brain synaptosomes. In kind it is biochemical. On the procedure: Inhibition of ^3H-5-HT Uptake Into Rat Brain Synaptosomes
Using this method the ability of drugs to inhibit the accumulation of ^3H-5-HT into whole rat brain synaptosomes is determined in vitro.

For data set [2], the target named is T2, cloned human 5-HT1A receptors (Homo sapiens, UniProt P08908).
T2 construct: expressed in transfected cells; host or cells: HeLa cells (HA7)
T2 sequence (P08908 1-422): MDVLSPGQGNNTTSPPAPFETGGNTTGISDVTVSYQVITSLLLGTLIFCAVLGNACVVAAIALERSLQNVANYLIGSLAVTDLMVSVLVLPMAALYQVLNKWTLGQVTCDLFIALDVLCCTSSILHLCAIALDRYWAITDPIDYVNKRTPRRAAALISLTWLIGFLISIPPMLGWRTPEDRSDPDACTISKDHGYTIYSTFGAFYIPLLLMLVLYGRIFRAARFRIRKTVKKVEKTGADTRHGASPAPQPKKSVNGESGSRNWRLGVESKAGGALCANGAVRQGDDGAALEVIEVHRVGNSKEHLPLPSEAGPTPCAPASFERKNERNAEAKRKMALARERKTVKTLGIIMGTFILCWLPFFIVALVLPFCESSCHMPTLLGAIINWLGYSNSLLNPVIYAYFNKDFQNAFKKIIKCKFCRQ
The data set is described as follows: Inhibition of 3H-5-CT binding to human 5-HT1A receptors. On the procedure:
The affinity of the compounds of the invention to 5-HT1A receptors was determined by measuring the inhibition of binding of a radioactive ligand at 5-HT1A receptors as described in the following test:
Inhibition of ^3H-5-CT Binding to Human 5HT1A Receptors
By this method the inhibition by drugs of the binding of the 5-HT1A agonist ^3H-5-carboxamido tryptamine (^3H-5-CT) to cloned human 5-HT1A receptors stably expressed in transfected HeLa cells (HA7) (Fargin, A. et al, J. Biol. Chem., 1989, 264, 14848) is determined in vitro. The assay was performed as a modification of the method described by Harrington, M. A. et al, J. Pharmacol. Exp. Ther., 1994, 268, 1098. Human 5-HT1A receptors (40 μg of cell homogenate) were incubated for 15 minutes at 37° C. in 50 mM Tris buffer at pH 7.7 in the presence of ^3H-5-CT. Non-specific binding was determined by including 10 μM of metergoline. The reaction was terminated by rapid filtration through Unifilter GF/B filters on a Tomtec Cell Harvester. Filters were counted in a Packard Top Counter.

Where [3] appears, read: 3H-5-HT accumulation into whole rat brain synaptosomes, in vitro, read-out: Inhibition of Serotonin reuptake IC50.
The mark [4] stands for this setting: cloned human 5-HT1A receptors in transfected HeLa cells (HA7), 15 minutes at 37° C., pH 7.7.

Counter-ions that a name gives are not always drawn. Like-named read-outs stand apart in the source and are kept apart here.

T1 sequence (P31652 whole entry): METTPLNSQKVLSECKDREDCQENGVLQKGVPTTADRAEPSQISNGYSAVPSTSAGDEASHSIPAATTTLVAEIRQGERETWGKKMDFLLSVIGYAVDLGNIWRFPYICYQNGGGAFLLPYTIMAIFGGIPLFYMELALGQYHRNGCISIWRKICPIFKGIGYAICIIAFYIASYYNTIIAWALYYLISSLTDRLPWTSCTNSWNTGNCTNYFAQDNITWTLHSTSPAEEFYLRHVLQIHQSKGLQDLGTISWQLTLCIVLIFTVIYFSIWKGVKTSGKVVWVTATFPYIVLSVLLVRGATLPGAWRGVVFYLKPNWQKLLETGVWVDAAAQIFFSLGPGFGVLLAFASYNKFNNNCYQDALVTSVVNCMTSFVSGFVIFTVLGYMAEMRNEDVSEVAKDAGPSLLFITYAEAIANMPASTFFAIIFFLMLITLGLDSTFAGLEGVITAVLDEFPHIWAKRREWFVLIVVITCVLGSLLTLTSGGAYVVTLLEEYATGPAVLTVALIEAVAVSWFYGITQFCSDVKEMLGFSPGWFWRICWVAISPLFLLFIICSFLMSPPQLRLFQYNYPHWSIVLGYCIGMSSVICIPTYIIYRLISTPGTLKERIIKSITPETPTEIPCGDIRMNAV

Consider `N#Cc1c[nH]c2cccc(N3CCN(CCc4coc5ccc(F)cc45)CC3)c12` [Compound 4n, 1-(3-Cyano-1H-indol-4-yl)-4-(2-(5-fluoro-3-benzofuranyl)ethyl)piperazine], for which the concentration for half-maximal inhibition (IC50) in data set [1] (setting [3]) was found to be 65 nM; in data set [2] (setting [4]), 5.7 nM. Consider `Fc1ccc2occ(CCCN3CC=C(c4cccc5[nH]ccc45)CC3)c2c1` [Compound 4s, 1-(3-(5-Fluoro-3-benzofuranyl)-1-propyl)-4-(1H-indol-4-yl)-1,2,3,6-tetrahydropyridine], for which the half-maximal inhibitory concentration (IC50) in data set [1] was determined as 24 nM; in data set [2] (setting [4]) it was 16 nM. For `Cc1ccc2occ(CCN3CCN(c4cccc5[nH]ccc45)CC3)c2c1` [Compound 4q, 1-(1H-Indol-4-yl)-4-(2-(5-methyl-3-benzofuranyl)ethyl)piperazine], the IC50 worked out at 34 nM in data set [1] and 21 nM in data set [2] (setting [4]).

On to `COC(=O)c1cc(N2CCN(CCc3c[nH]c4ccccc34)CC2)c2cc[nH]c2c1` [Compound 4f, 1-(2-(1H-indol-3-yl)ethyl)-4-(6-methoxycarbonyl-1H-indol-4-yl)piperazine], for which the figures for the IC50 in data set [1] and in data set [2] (setting [4]) were 14 nM and 1200 nM, respectively. The corresponding values for `Clc1cccc2c(CCN3CCN(c4cccc5[nH]ccc45)CC3)coc12` [Compound 4v, 1-(2-(7-Chloro-3-benzofuranyl)ethyl)-4-(1H-indol-4-yl)piperazine] are 4.4 nM and 4.3 nM. For the compound `Fc1ccc2occ(CN3CCN(c4cccc5[nH]ccc45)CC3)c2c1` [Compound 4l, 1-(5-Fluoro-3-benzofuranylmethyl)-4-(1H-indol-4-4-yl)piperazine], the IC50 in data set [1] (setting [3]) is 950 nM; in data set [2] (setting [4]), 330 nM. As for `Fc1ccc2[nH]cc(CCN3CCN(c4cccc5[nH]ccc45)CC3)c2c1` [Compound 2c, 1-(2-(5-Fluoro-1H-indol-3-yl)ethyl)-4-(1H-indol-4-yl)piperazine], the results for the half-inhibitory concentration (IC50) in data set [1] and in data set [2] (setting [4]) were 2.3 nM and 27 nM, respectively.

In data set [2] (setting [4]), `Cc1oc2c(F)c(F)c(F)c(F)c2c1CCN1CCN(c2cccc3[nH]ccc23)CC1` [Compound 1i, 1-(2-(2-Methyl-4,5,6,7-tetrafluoro-3-benzofuranyl)ethyl)-4-(1H-indol-4-yl)piperaziine] had an IC50 of 3.4 nM.

Consider `c1ccc2c(CCCN3CCN(c4cccc5[nH]ccc45)CC3)c[nH]c2c1` [Compound 1f, 1-(3-(1H-indol-3-yl)-1-propyl)-4-(1H-indol-4-yl)piperazine], for which the figures for the half-maximal inhibitory concentration (IC50) in data set [1] (setting [3]) and in data set [2] (setting [4]) were 8.2 nM and 9.8 nM, respectively. For `Clc1ccc2c(CCN3CCN(c4cccc5[nH]ccc45)CC3)n[nH]c2c1` [Compound 1k, 1-(2-(6-Chloro-3-indazolyl)ethyl)-4-(1H-indol-4-yl)piperazine], the values for the half-inhibitory concentration (IC50) in data set [1] (setting [3]) and in data set [2] were 150 nM and 22 nM, respectively. In the case of `COC(=O)c1cc(N2CCN(CCc3c[nH]c4cc(Cl)ccc34)CC2)c2cc[nH]c2c1` [Compound 4g, 1-(2-(6-Chloro-1H-indol-3-yl)ethyl)-4-(6-methoxycarbonyl-1-H-indol-4-yl)piperazine], the IC50 in data set [1] was 23 nM; in data set [2] (setting [4]) it was 350 nM. In the case of `Clc1ccc2c(CCN3CCN(c4cccc5[nH]ccc45)CC3)c[nH]c2c1` [Compound 2a, 1-(2-(6-Chloro-1H-indol-3-yl)ethyl)-4-(1H-indol-4-yl)piperazine], the half-inhibitory concentration (IC50) in data set [1] was 21 nM; in data set [2] (setting [4]), 3.4 nM.

On to `N#Cc1c[nH]c2cccc(N3CCN(CCc4c[nH]c5cccc(Cl)c45)CC3)c12` [Compound 4x, 1-(2-(4-Chloro-1H-indol-3-yl)ethyl)-4-(3-cyano-1H-indol-4-yl)piperazine], for which the IC50 in data set [2] (setting [4]) is 5.4 nM.

`N#Cc1cccc2c(CCN3CCN(c4cccc5[nH]ccc45)CC3)c[nH]c12` [Compound 1l, 1-(2-(7-Cyano-1H-indol-3-yl)ethyl)-4-(1H-indol-4-yl)piperazine] registered a half-maximal inhibitory concentration (IC50) in data set [2] (setting [4]) of 2.5 nM. Turning to `Brc1cccc2c(CCN3CCN(c4cccc5[nH]ccc45)CC3)c[nH]c12` (as salt: oxalate) [Compound 2i, 1-(2-(7-Bromo-1H-indol-3-yl)ethyl)-4-(1H-indol-4-yl)piperazine], the melting point is 149 to 151 °C.
